In US20030073850A1, “4-Imidazole derivatives of benzyl and restricted benzyl sulfonamides, sulfamides, ureas, carbamates, and amides and their use” (priority 1998, published 2003):

Legend:
[1] = target: T1, α1d (rat receptor expressed in mouse fibroblasts) (Rattus norvegicus, UniProt P23944); experiment: Radioligand binding, [3H]-prazosin, α1d; conditions: rat receptor expressed in mouse fibroblasts, [3H]-prazosin; read-out: Radioligand Binding Ki α1d (Rat)
T1 construct: expressed in transfected cells; host or cells: mouse fibroblasts
T1 sequence (P23944 1-561): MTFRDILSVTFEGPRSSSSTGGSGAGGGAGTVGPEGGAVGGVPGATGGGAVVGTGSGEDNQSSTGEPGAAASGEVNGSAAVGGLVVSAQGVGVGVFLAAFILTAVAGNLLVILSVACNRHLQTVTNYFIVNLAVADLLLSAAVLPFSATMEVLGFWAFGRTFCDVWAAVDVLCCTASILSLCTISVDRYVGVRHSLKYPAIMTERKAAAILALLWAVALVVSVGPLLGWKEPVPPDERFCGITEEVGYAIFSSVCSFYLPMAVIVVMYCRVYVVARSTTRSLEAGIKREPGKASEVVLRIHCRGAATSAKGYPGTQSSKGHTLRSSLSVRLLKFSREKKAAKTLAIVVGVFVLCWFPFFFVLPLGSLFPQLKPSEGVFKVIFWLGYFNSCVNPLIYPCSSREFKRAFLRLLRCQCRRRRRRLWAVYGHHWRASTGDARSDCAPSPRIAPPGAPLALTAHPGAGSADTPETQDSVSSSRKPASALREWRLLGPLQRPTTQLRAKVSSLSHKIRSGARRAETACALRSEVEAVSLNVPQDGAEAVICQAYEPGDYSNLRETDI
Outline: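 [3H]-prazosin radioligand displacement; α1A from rat submaxillary gland tissue, α1b hamster and α1d rat receptors each expressed in mouse fibroblasts.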

[2] = tested on: anesthetized dogs; experiment: Intraurethral pressure (IUP) in anesthetized dogs; assay type: in vivo, dog
Excerpt: (§1) Female Beagle dogs (Marshall Farms, North Rose, N.Y.) greater that 2 years of age and weighing between 12 and 15 kg were used in these studies. At least 2 weeks prior to any agonist dosing, dogs were instrumented for the chronic measurement of arterial blood pressure by implanting a telemetry transducer/transmitter (TA11PA-C40, Data Sciences International, St. Paul, Minn.) into a carotid artery.
(§2) On the test day, dogs fasted since the previous afternoon were pre-anesthetized with thiopental sodium 15 mg/kg i.v. (Pentothal™, Abbott) and intubated. Anesthesia was maintained by allowing the dog to spontaneously breathe a mixture of isoflurane (2.5 to 3 volume %) and oxygen delivered by a Narkomed Standard anesthesia system (North American Drager, Telford, Pa.). An Abbocath-T™ i.v. catheter (18-G, Abbott) was inserted into the cephalic vein for the administration of agonists. A telemetry receiver (RA1310, DataSciences) was placed under the head of each dog and was interfaced to a computerized data acquisition system (Modular Instruments Inc.(MI2), Malvern, Pa.) which allowed for the continuous calibrated recording of arterial blood pressure which was electronically filtered to determine its mean value (MAP).
Dogs with chronic telemetry implants anesthetized as described above were placed in dorsal recumbency and a balloon catheter was inserted into the urethral orifice and advanced approximately 15 cm until the tip was well inside the bladder. The balloon was then inflated with 1 ml of room air and the catheter slowly withdrawn until resistance (corresponding to the bladder neck) was evident. The balloon was then deflated and the catheter withdrawn additional 2 cm. The balloon was then reinflated and its catheter port connected to a Gould Statham P23Dd pressure transducer interfaced to a computerized data acquisition system (Modular Instruments, Inc., Malvern, Pa.) for the measurement of the intraurethral pressure. Increasing iv doses of test agonists were administered and the maximum effect of each dose on IUP was recorded. The effect of each dose was allowed to return to baseline before the next dose was given.
(§3) From the resulting dose response curve, an ED5 value, for the dose causing a maximum increase in IUP of 5 mm Hg, could be estimated. An ED20 value for the dose causing a maximum increase in MAP of 20 mm Hg could also be estimated. A selectivity ratio of MAP ED20 vs. IUP ED, was calculated.

[3] = tested on: anesthetized dogs; experiment: Mean arterial pressure (MAP) in anesthetized dogs; assay type: in vivo, dog; conditions: iv dose causing a maximum increase in MAP of 20 mm Hg, anesthetized female Beagle dogs
Excerpt: as §1, §2, §3

Ki [1]: 10 µM | Mean MAP ED20 [3]: 109.1 nmol/kg | melting point: 223 to 226 °C
SMILES: CCS(=O)(=O)Nc1cccc2c1OCCC2c1c[nH]cn1 (single isomer, unassigned; (+)) [Example 95, (+) N-[4-(1H-imidazol-4-yl)-3,4-dihydro-2H-chromen-8-yl]ethanesulfonamide]
ED (5 mm Hg) ([2]; Canis lupus familiaris, iv dose causing a maximum increase in IUP of 5 mm Hg, anesthetized female Beagle dogs, read-out: Mean IUP ED5): 0.113 µmol/kg | Mean Selectivity Ratio MAP ED20/IUP ED5 ([2]; anesthetized dogs, iv): 0.99
